From the NIST ThermoML archive (doi:10.1016/j.jct.2011.05.003)

Test: xn = mol fraction of the nth substance listed
Conditions: Liquid; for speed of sound: 101 kPa, Sing-around technique in a fixed-path interferometer; for mass density: 101.3 kPa, Vibrating tube method

CCCCCC(C)=O [2-heptanone] + CCN(CC)CC
Conditions | mass density [kg/m3] | speed of sound [m/s]
293.15 K, x1 = 0.0636 | 733.182 | 1141.8
293.15 K, x1 = 0.1061 | 737.185 | 1148.4
293.15 K, x1 = 0.1585 | 741.934 | 1156
293.15 K, x1 = 0.2077 | 746.426 | 1163.5
293.15 K, x1 = 0.2536 | 750.6 | 1170.4
293.15 K, x1 = 0.3091 | 755.621 | 1178.7
293.15 K, x1 = 0.3614 | 760.322 | 1186.6
293.15 K, x1 = 0.4043 | 764.18 | 1193.1
293.15 K, x1 = 0.4621 | 769.325 | 1201.9
293.15 K, x1 = 0.5022 | 772.887 | 1208
293.15 K, x1 = 0.5577 | 777.79 | 1216.3
293.15 K, x1 = 0.6078 | 782.199 | 1223.9
293.15 K, x1 = 0.6604 | 786.734 | 1231.8
293.15 K, x1 = 0.7001 | 790.167 | 1237.8
293.15 K, x1 = 0.749 | 794.387 | 1245
293.15 K, x1 = 0.7968 | 798.46 | 1252.1
293.15 K, x1 = 0.8517 | 803.051 | 1260.2
293.15 K, x1 = 0.9008 | 807.18 | 1267.3
293.15 K, x1 = 0.9507 | 811.366 | 1274.7
298.15 K, x1 = 0.0574 | 727.994 | 1119.4
298.15 K, x1 = 0.105 | 732.47 | 1126.8
298.15 K, x1 = 0.1619 | 737.667 | 1135.5
298.15 K, x1 = 0.2068 | 741.77 | 1142.1
298.15 K, x1 = 0.2598 | 746.582 | 1150.2
298.15 K, x1 = 0.3075 | 750.925 | 1157.5
298.15 K, x1 = 0.3578 | 755.443 | 1165.2
298.15 K, x1 = 0.4081 | 759.984 | 1172.9
298.15 K, x1 = 0.4548 | 764.166 | 1180.1
298.15 K, x1 = 0.5032 | 768.476 | 1187.5
298.15 K, x1 = 0.5545 | 773.017 | 1195.4
298.15 K, x1 = 0.6103 | 777.928 | 1204
298.15 K, x1 = 0.6579 | 782.088 | 1211.3
298.15 K, x1 = 0.6994 | 785.697 | 1217.6
298.15 K, x1 = 0.7484 | 789.941 | 1225.1
298.15 K, x1 = 0.8031 | 794.633 | 1233.3
298.15 K, x1 = 0.8576 | 799.228 | 1241.5
298.15 K, x1 = 0.9014 | 802.909 | 1247.9
298.15 K, x1 = 0.9462 | 806.662 | 1254.6
303.15 K, x1 = 0.0612 | 723.838 | 1100.1
303.15 K, x1 = 0.1056 | 727.95 | 1106.8
303.15 K, x1 = 0.1602 | 732.935 | 1115.1
303.15 K, x1 = 0.2068 | 737.166 | 1122.2
303.15 K, x1 = 0.2606 | 742.09 | 1130.5
303.15 K, x1 = 0.3086 | 746.453 | 1137.9
303.15 K, x1 = 0.3583 | 750.968 | 1145.7
303.15 K, x1 = 0.4082 | 755.492 | 1153.5
303.15 K, x1 = 0.4553 | 759.737 | 1160.8
303.15 K, x1 = 0.5042 | 764.098 | 1168.4
303.15 K, x1 = 0.5983 | 772.43 | 1183.1
303.15 K, x1 = 0.6536 | 777.279 | 1191.6
303.15 K, x1 = 0.7031 | 781.622 | 1199.3
303.15 K, x1 = 0.7452 | 785.267 | 1205.8
303.15 K, x1 = 0.8088 | 790.717 | 1215.5
303.15 K, x1 = 0.8489 | 794.102 | 1221.5
303.15 K, x1 = 0.9007 | 798.491 | 1229.2
303.15 K, x1 = 0.9503 | 802.71 | 1235.8

CCCCNCCCC [dibutylamine] + CCCCCC(C)=O
Conditions | mass density [kg/m3] | speed of sound [m/s]
293.15 K, x2 = 0.064 | 762.405 | 1261.7
293.15 K, x2 = 0.1633 | 767.21 | 1263
293.15 K, x2 = 0.2061 | 769.239 | 1263.4
293.15 K, x2 = 0.2606 | 772.046 | 1264.5
293.15 K, x2 = 0.4493 | 781.952 | 1267.8
293.15 K, x2 = 0.5094 | 785.255 | 1269.1
293.15 K, x2 = 0.644 | 792.949 | 1272.1
293.15 K, x2 = 0.7511 | 799.387 | 1274.7
293.15 K, x2 = 0.9018 | 808.899 | 1278.8
298.15 K, x2 = 0.0624 | 758.343 | 1241.7
298.15 K, x2 = 0.1107 | 760.603 | 1242.2
298.15 K, x2 = 0.2097 | 765.511 | 1243.8
298.15 K, x2 = 0.3613 | 773.119 | 1246.3
298.15 K, x2 = 0.4049 | 775.426 | 1247.1
298.15 K, x2 = 0.4499 | 777.849 | 1248
298.15 K, x2 = 0.5496 | 783.354 | 1250.2
298.15 K, x2 = 0.6482 | 789.026 | 1252.5
298.15 K, x2 = 0.7509 | 795.166 | 1255.1
298.15 K, x2 = 0.7987 | 798.112 | 1256.4
298.15 K, x2 = 0.8986 | 804.449 | 1259.3
298.15 K, x2 = 0.9488 | 807.773 | 1261
303.15 K, x2 = 0.1122 | 756.507 | 1223.3
303.15 K, x2 = 0.1605 | 758.79 | 1223.9
303.15 K, x2 = 0.2587 | 763.614 | 1225.3
303.15 K, x2 = 0.3597 | 768.787 | 1227.2
303.15 K, x2 = 0.4096 | 771.421 | 1228.2
303.15 K, x2 = 0.4986 | 776.259 | 1230.1
303.15 K, x2 = 0.6478 | 784.736 | 1233.7
303.15 K, x2 = 0.747 | 790.673 | 1236.3
303.15 K, x2 = 0.7997 | 793.928 | 1237.9
303.15 K, x2 = 0.852 | 797.226 | 1239.4
303.15 K, x2 = 0.8984 | 800.193 | 1240.8

CCCNCCC [dipropylamine] + CCCCCC(C)=O
Conditions | mass density [kg/m3] | speed of sound [m/s]
293.15 K, x2 = 0.0603 | 743.175 | 1213.9
293.15 K, x2 = 0.1045 | 746.717 | 1217.2
293.15 K, x2 = 0.1559 | 750.817 | 1221
293.15 K, x2 = 0.2013 | 754.413 | 1224.3
293.15 K, x2 = 0.2526 | 758.468 | 1228.1
293.15 K, x2 = 0.2936 | 761.7 | 1231.1
293.15 K, x2 = 0.3492 | 766.042 | 1235.2
293.15 K, x2 = 0.4579 | 774.494 | 1243
293.15 K, x2 = 0.493 | 777.204 | 1245.6
293.15 K, x2 = 0.5494 | 781.554 | 1249.6
293.15 K, x2 = 0.5894 | 784.624 | 1252.6
293.15 K, x2 = 0.6478 | 789.087 | 1256.9
293.15 K, x2 = 0.6896 | 792.266 | 1259.9
293.15 K, x2 = 0.7615 | 797.717 | 1265.1
293.15 K, x2 = 0.8025 | 800.833 | 1268
293.15 K, x2 = 0.8139 | 801.69 | 1268.8
293.15 K, x2 = 0.8993 | 808.079 | 1275
293.15 K, x2 = 0.948 | 811.684 | 1278.4
298.15 K, x2 = 0.0521 | 738.054 | 1191.8
298.15 K, x2 = 0.1048 | 742.273 | 1196
298.15 K, x2 = 0.1557 | 746.324 | 1199.8
298.15 K, x2 = 0.2 | 749.853 | 1203.2
298.15 K, x2 = 0.2526 | 754.005 | 1207.1
298.15 K, x2 = 0.2962 | 757.449 | 1210.4
298.15 K, x2 = 0.3436 | 761.173 | 1213.9
298.15 K, x2 = 0.385 | 764.422 | 1217
298.15 K, x2 = 0.4478 | 769.307 | 1221.7
298.15 K, x2 = 0.5427 | 776.662 | 1228.8
298.15 K, x2 = 0.6003 | 781.222 | –
298.15 K, x2 = 0.6436 | 784.41 | 1236.4
298.15 K, x2 = 0.69 | 787.95 | 1239.8
298.15 K, x2 = 0.7418 | 791.892 | 1243.6
298.15 K, x2 = 0.8061 | 796.768 | 1248.5
298.15 K, x2 = 0.8548 | 800.432 | 1252
298.15 K, x2 = 0.8993 | 803.773 | 1255.3
298.15 K, x2 = 0.9528 | 807.724 | 1259.1
303.15 K, x2 = 0.0578 | 733.883 | 1172.1
303.15 K, x2 = 0.1054 | 737.733 | 1175.8
303.15 K, x2 = 0.1579 | 741.943 | 1179.9
303.15 K, x2 = 0.2005 | 745.356 | 1183.2
303.15 K, x2 = 0.2497 | 749.277 | 1187.1
303.15 K, x2 = 0.2951 | 752.865 | 1190.6
303.15 K, x2 = 0.3476 | 756.998 | 1194.7
303.15 K, x2 = 0.3856 | 759.993 | 1197.7
303.15 K, x2 = 0.4504 | 765.062 | 1202.6
303.15 K, x2 = 0.5442 | 772.346 | 1209.8
303.15 K, x2 = 0.5891 | 775.815 | 1213.4
303.15 K, x2 = 0.642 | 779.872 | 1217.3
303.15 K, x2 = 0.687 | 783.319 | 1220.8
303.15 K, x2 = 0.7413 | 787.465 | 1225
303.15 K, x2 = 0.7994 | 791.897 | 1229.4
303.15 K, x2 = 0.8564 | 796.191 | 1233.7
303.15 K, x2 = 0.8993 | 799.423 | 1236.9
303.15 K, x2 = 0.9497 | 803.188 | 1240
